From ChEMBL document CHEMBL1156321, “Oxime esters as selective, covalent inhibitors of the serine hydrolase retinoblastoma-binding protein 9 (RBBP9)” (Bioorg Med Chem Lett, 2010)
Activity calls are given as the source filed them. The rule behind the calls is not given here.

Tests used:
Serine hydrolase RBBP9 [1] = target: T1, Serine hydrolase RBBP9 (Homo sapiens, UniProt O75884); test: Displacement of fluorophosphate-rhodamine from recombinant RBBP9 transfected in mouse brain membrane proteomes after 30 mins by SDS-PAGE gel fluorescence assay; type: cell membranes
Target sequence in this assay (O75884 whole entry): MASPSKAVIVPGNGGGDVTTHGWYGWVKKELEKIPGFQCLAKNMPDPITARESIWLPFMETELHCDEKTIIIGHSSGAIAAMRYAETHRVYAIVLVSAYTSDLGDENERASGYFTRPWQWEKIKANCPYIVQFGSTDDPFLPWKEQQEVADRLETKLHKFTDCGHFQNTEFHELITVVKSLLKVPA

Serine hydrolase RBBP9 [2] = target: T1, Serine hydrolase RBBP9; test: Displacement of fluorophosphate-rhodamine from RBBP9 transfected in human HEK293T cells proteomes after 30 mins by SDS-PAGE gel fluorescence assay; type: cell-based, HEK-293T
Target sequence in this assay (O75884 whole entry): as above

Serine hydrolase RBBP9 [3] = target: T1, Serine hydrolase RBBP9; test: Displacement of fluorophosphate-rhodamine from RBBP9 transfected in human HEK293T cells proteomes at 20 uM after 30 mins by SDS-PAGE gel fluorescence assay; type: cell-based; conditions: HEK-293T
Target sequence in this assay (O75884 whole entry, looked up): as the sequence (O75884 whole entry) above

[4] = target: T2, Glutathione S-transferase omega-1 (Homo sapiens) (UniProt P78417); test: Displacement of phenylsulphonate-rhodamine from GSTO1 in human MDA-MB-231 cells proteomes at 20 uM after 30 mins by SDS-PAGE gel fluorescence assay; type: cell-based
T2 sequence (whole entry): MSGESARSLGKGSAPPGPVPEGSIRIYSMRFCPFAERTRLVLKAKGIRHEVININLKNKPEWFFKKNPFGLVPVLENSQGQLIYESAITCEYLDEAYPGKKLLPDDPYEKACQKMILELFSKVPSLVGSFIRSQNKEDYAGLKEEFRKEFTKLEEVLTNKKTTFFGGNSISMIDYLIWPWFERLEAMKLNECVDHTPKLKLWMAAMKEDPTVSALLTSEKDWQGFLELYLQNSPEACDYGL

Serine hydrolase RBBP9 [5] = target: T1, Serine hydrolase RBBP9; test: Displacement of fluorophosphate-rhodamine from RBBP9 transfected in human HEK293T cells proteomes at 7.9 uM after 30 mins by SDS-PAGE gel fluorescence assay; type: cell-based; conditions: HEK-293T
Target sequence in this assay (O75884 whole entry, looked up): as the sequence (O75884 whole entry) above

Serine hydrolase RBBP9 [6] = target: T1, Serine hydrolase RBBP9; test: Displacement of phenylsulphonate-rhodamine from RBBP9 transfected in human MDA-MB-231 cells proteomes after 30 mins by SDS-PAGE gel fluorescence assay; type: cell-based
Target sequence in this assay (O75884 whole entry, looked up): as the sequence (O75884 whole entry) above

Serine hydrolase RBBP9 [7] = target: T1, Serine hydrolase RBBP9; test: Displacement of fluorophosphate-rhodamine from recombinant RBBP9 transfected in mouse brain membrane proteomes at 200 uM after 30 mins by SDS-PAGE gel fluorescence assay; type: cell membranes
Target sequence in this assay (O75884 whole entry, looked up): as the sequence (O75884 whole entry) above

Structure (SMILES) | inhibition (Serine hydrolase RBBP9 [3]) | also measured
COc1ccc(C(=O)ON=C2C=C(C)C(=O)C(C)=C2)cc1 | 93% | IC50 (Serine hydrolase RBBP9 [1]): 1500 nM; IC50 (Serine hydrolase RBBP9 [2]): 1500 nM
C/C(=N\OC(=O)c1cc(F)ccc1F)c1nccs1 | 66% | 
C/C(=N\OC(=O)c1ccc([N+](=O)[O-])cc1)c1nccs1 | 15% | 
COc1ccc(C(=O)ON=C2C(C)=CC(=O)C=C2C)cc1 | 48% | 
C/C(=N\OC(=O)c1cccc(C(F)(F)F)c1)c1nccs1 | 46% | 
CC[C@H]1CN2CCc3cc(OC)c(OC)cc3[C@@H]2C[C@@H]1CC1NCCc2cc(OC)c(OC)cc21 (single isomer, unassigned) [EMETINE] |  | IC50 (Serine hydrolase RBBP9 [2]; hek-293t): 7800 nM
CC(=O)O/N=C(\C)c1nccs1 | 0% | 
C/C(=N\OC(=O)c1c(-c2c(Cl)cccc2Cl)noc1C)c1nccs1 | 8% | 
C/C(=N\OC(=O)c1ccccc1F)c1nccs1 | 64% | 
C/C(=N\OC(=O)N1CCCCC1)c1nccs1 | 0% | 
C/C(=N\OC(=O)c1ccc(Cl)cc1)c1nccs1 | 78% | inhibition (Serine hydrolase RBBP9 [6]): inactive; inhibition (Serine hydrolase RBBP9 [5]): 80%; IC50 (Serine hydrolase RBBP9 [2]): 1900 nM; Activity (Serine hydrolase RBBP9 [7]): inactive
C/C(=N\OC(=O)c1c(-c2ccccc2Cl)noc1C)c1nccs1 | 17% | 
C/C(=N\OC(=O)c1ccc(F)cc1)c1nccs1 | 76% | IC50 (Serine hydrolase RBBP9 [2]): 5700 nM
C/C(=N\OC(=O)c1ccc(I)cc1)c1nccs1 | 66% | 

Now from value to compound, other results behind:

inhibition (Serine hydrolase RBBP9 [3]) | Structure (SMILES) | also measured
63% | C/C(=N\OC(=O)c1cccc(Cl)c1)c1nccs1 | 
42% | C#CCCC(=O)O/N=C(\C)c1nccs1 | 
91% | C/C(=N\OC(=O)C1CCCCC1)c1nccs1 | IC50 (Serine hydrolase RBBP9 [2]): 640 nM
62% | C/C(=N\OC(=O)c1ccccc1)c1nccs1 | 
78% | CC1=CC(=NOC(=O)/C=C/c2ccccc2)C=C(C)C1=O | inhibition [4]: Active; inhibition (Serine hydrolase RBBP9 [5]): 79%; IC50 (Serine hydrolase RBBP9 [2]): 1200 nM
4% | C/C(=N\OC(=O)c1ccc(-c2ccccc2)cc1)c1nccs1 | 
76% | COc1ccc(C(=O)O/N=C2/C=C(C)C(=O)C=C2C)cc1 | 
42% | C/C(=N\OC(=O)/C=C/c1ccccc1)c1nccs1 | 
14% | C/C(=N\OC(=O)c1c(-c2c(F)cccc2Cl)noc1C)c1nccs1 | 
60% | COc1ccc(C(=O)O/N=C(\C)c2nccs2)cc1 | inhibition (Serine hydrolase RBBP9 [6]): inactive; inhibition (Serine hydrolase RBBP9 [5]): 39%; IC50 (Serine hydrolase RBBP9 [2]): 9200 nM
